Test results taken from patent US8722864B2 (Nutek Pharma Ltd., priority 2010, dated 2014).
Where “and” joins values, the source holds several entries; their conditions need not be identical. Equal entries are not always repeated.

Columns and labels:
[1] = Water (D2O) solubility by 1H NMR against DSS standard; assay type: physicochemical; conditions: for solubility at 3 days: water, thermodynamic from solid
Description: The method use involved stirring the sample in D2O for a period of 3 days, followed by filtration using a 0.2μ syringe filter. A measured volume of this saturated solution was diluted with a standard solution of DSS in D2O, and a ^1H NMR was taken. Integration of the DSS peaks compared to that of the analog would allow for the determination of its concentration, and thus the concentration of the saturated solution.

[2] = Solution stability (hydrolysis) in phosphate-buffered D2O at pD 5, 6, 7 monitored by 1H NMR; assay type: physicochemical; conditions: for stability to the pD's (in words): pD 5, 6, 7 in D2O; for Time to % hydrolysis t10% / Time to % hydrolysis t25% / Time to % hydrolysis t50%: 23° C.; for change in 1H NMR spectra: after 167 days, pD 5, 6, 7
Description: 10 mL (11.07 g) D2O was placed in 3 separate vials with a stir bar and 0.002 moles (0.272 g) monobasic potassium phosphate (KH2PO4) was added to each. With the pD metered, NaOD/D2O was added drop-wise to each to adjust the pD's to 5.0, 6.0, and 7.0. Each of these solutions was gently boiled before use. Thus each vial contained […] phosphate buffered solution. […] The sample was sterilized by heating for 10 seconds, and after it had cooled down to ambient temperature (about 1 minute), 0.3 mL of one of the 0.2 mM 3 buffered solutions was added. The 0.6 mL sample was then placed in a sterilized NMR tube and the tube sealed and labeled. Each of the samples was stored at 23° C. protected from the light and monitored by ^1H NMR (64 scans for each sample) periodically.

[3] = in vivo; conditions: male, Sprague-Dawley, rat, iv
[4] = rat, in vivo, iv; for AUCinf/AUClast of the pro-drug: male, Sprague-Dawley
[5] = water; cited from earlier work
[6] = Pharmacokinetics after intravenous administration in male Sprague-Dawley rats; conditions: for mean concentration of acetaminophen in rat plasma or blood: 66 μmol/kg nominal, plasma (blood for 18, 19);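 on all read-outs here: rats fasted overnight before dosing and fed about 4 h afterwards, with serial blood sampled through a carotid artery catheter at each time point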
[7] = acetaminophen analyte after IV dose of acetaminophen or pro-drug, rat
[8] = stirred 3 days in D2O, 0.2 μ filtered

| Compound | relative molar solubility [1] | solubility at 3 days [1] | AUC(0-inf) [3] [µM·h] | AUC(0-t) [3] [µM·h] | C0 [3] [µM] | MRT inf [3] [min] | Vd [3] [L/kg] | clearance [3] [mL/min/kg] | half-life [3] [min] | AUCinf/AUClast of the pro-drug [4] [%] | AUC of the pro-drug (in words) [4] | half-lives of the pro-drug (in words) [4] | change in 1H NMR spectra [2] | also measured |
| --- | --- | --- | --- | --- | --- | --- | --- | --- | --- | --- | --- | --- | --- | --- |
| CC(=O)Nc1ccc(O[C@@H]2C=C[C@H](O)[C@@H](CO)O2)cc1 [compound 1, N-(4-((2R,5S,6R)-5-hydroxy-6-(hydroxymethyl)-5,6-dihydro-2H-pyran-2-yloxy)phenyl)acetamide] | 0.6 | 14000 µg/mL and 53000 µM |  |  |  |  |  |  |  |  |  |  |  | stability to the pD's (in words) [2]: least stable; Time to % hydrolysis t10% ([2]; pD 5, D2O): 0.3 days; Time to % hydrolysis t25% ([2]; pD 5, D2O): 0.8 days; Time to % hydrolysis t50% ([2]; pD 5, D2O): 2.0 days; Time to % hydrolysis t10% ([2]; pD 6, D2O): 2.25 days; Time to % hydrolysis t25% ([2]; pD 6, D2O): 6.25 days; Time to % hydrolysis t50% ([2]; pD 6, D2O): 17 days; Time to % hydrolysis t10% ([2]; pD 7, D2O): 5.5 days; Time to % hydrolysis t25% ([2]; pD 7, D2O): 26 days; Time to % hydrolysis t50% ([2]; pD 7, D2O): 70 days |
| CC(=O)Nc1ccc(O[C@H]2O[C@H](CO)[C@@H](O[C@H]3O[C@H](CO)[C@@H](O)[C@H](O)[C@H]3O)[C@H](O)[C@@H]2O)cc1 [compound 5, 1-(4-acetaminophenoxy) 2-epi maltose] | >14 | > 621000 µg/mL and > 1.3e+06 µM | 1.69 | 1.57 | 2.49 | 39.2 | 26.8 | 759 | 79.2 | 106 | high | relatively high | no change | solubility (in words) [1]: highest solubility |
| CC(=O)Nc1ccc(O[C@H]2O[C@H](CO)[C@@H](O)[C@H](O)[C@@H]2O)cc1 [compound 8, 1-(4′-acetamidophenoxy) mannose] | 1.8 | 51000 µg/mL and 164000 µM | 44.9 | 44.9 | 336 | 14.2 | 0.349 | 24.7 | 39.5 | 100 | low |  | no change |  |
| CC(=O)Nc1ccc(O[C@@H]2CCC(O)[C@@H](CO)O2)cc1 (some centres unmarked) [compound 12, 1-(4′-acetamidophenoxy) 2,3-dideoxy glucose] | 0.3 | 9000 µg/mL and 31000 µM |  |  |  |  |  |  |  |  |  |  |  | stability to the pD's (in words) [2]: a lot of instability; Time to % hydrolysis t10% ([2]; pD 5, D2O): 7 days; Time to % hydrolysis t25% ([2]; pD 5, D2O): 20 days; Time to % hydrolysis t50% ([2]; pD 5, D2O): 58 days; Time to % hydrolysis t10% ([2]; pD 6, D2O): 48 days |
| CCCC(=O)OC[C@H]1O[C@H](Oc2ccc(NC(C)=O)cc2)[C@@H](O)[C@@H](O)[C@@H]1O [compound 18, 1-(4′-acetamidophenoxy)-6-O-butyrylmannose] | 0.81 | 30000 µg/mL and 77000 µM | 3.31 | 3.3 | 43.1 | 4.56 | 1.56 | 345 | 3.13 | 100 | low |  |  |  |
| CC(=O)Nc1ccc(O[C@H]2O[C@H](COC(=O)CCC(=O)O)[C@@H](O)[C@H](O)[C@@H]2O)cc1 [compound 20] |  |  | 51.9 | 51.8 | 218 | 25.2 | 0.549 | 22.7 | 123 | 100 | high | relatively high |  |  |

Further lines, with some results ahead:

| relative molar solubility [1] | solubility at 3 days [1] | AUC(0-inf) [3] [µM·h] | AUC(0-t) [3] [µM·h] | C0 [3] [µM] | MRT inf [3] [min] | Vd [3] [L/kg] | clearance [3] [mL/min/kg] | half-life [3] [min] | AUCinf/AUClast of the pro-drug [4] [%] | AUC of the pro-drug (in words) [4] | half-lives of the pro-drug (in words) [4] | change in 1H NMR spectra [2] | Compound | also measured |
| --- | --- | --- | --- | --- | --- | --- | --- | --- | --- | --- | --- | --- | --- | --- |
| 5.6 | 203000 µg/mL and 570000 µM | 14.2 | 14.2 | 95.8 | 10.2 | 0.8 | 78.7 | 13.2 | 100 | low |  |  | CC(=O)Nc1ccc(O[C@H]2O[C@H](COC(C)=O)[C@@H](O)[C@H](O)[C@@H]2O)cc1 [compound 15] |  |
| 0.43 | 16000 µg/mL and 41000 µM | 3.68 | 3.68 | 31.1 | 8.7 | 1.77 | 203 | 14.6 | 100 | low |  |  | CC(=O)Nc1ccc(O[C@H]2O[C@H](COC(=O)C(C)C)[C@@H](O)[C@H](O)[C@@H]2O)cc1 [compound 19, 1-(4′-acetamidophenoxy)-6-O-isobutyrylmannose] |  |
| 2.1 | 60000 µg/mL and 202000 µM | 44.1 | 44 | 123 | 52.7 | 1.58 | 24.9 | 116 | 100 | high | relatively high |  | CC(=O)Nc1ccc(O[C@H]2O[C@H](C)[C@@H](O)[C@H](O)[C@@H]2O)cc1 [compound 23, 1-(4′-acetamidophenoxy)-6-deoxymannose] |  |
|  |  |  |  |  |  |  |  |  |  |  |  | no change | acetaminophen | literature value of acetaminophen's solubility [5]: 14 mg/mL; mean concentration of acetaminophen in rat plasma or blood ([6]; 2 min after IV dose of acetaminophen or pro-drug): 133.854 µM; mean concentration of acetaminophen in rat plasma or blood ([6]; 5 min after IV dose of acetaminophen or pro-drug): 89.75 µM; mean concentration of acetaminophen in rat plasma or blood ([6]; 0.250 h after IV dose of acetaminophen or pro-drug): 45.118 µM; mean concentration of acetaminophen in rat plasma or blood ([6]; 0.500 h after IV dose of acetaminophen or pro-drug): 23.661 µM; mean concentration of acetaminophen in rat plasma or blood ([6]; 2.00 h after IV dose of acetaminophen or pro-drug): 0.823 µM; mean concentration of acetaminophen in rat plasma or blood ([6]; 4.00 h after IV dose of acetaminophen or pro-drug): 0.528 µM; mean concentration of acetaminophen in rat plasma or blood ([6]; 6.00 h after IV dose of acetaminophen or pro-drug): 0.237 µM; mean concentration of acetaminophen in rat plasma or blood ([6]; 8.00 h after IV dose of acetaminophen or pro-drug): 0.108 µM; AUCinf of acetaminophen [6, 7]: 41.231 µM·h; AUCinf/AUClast of acetaminophen [6, 7]: 100%; AUClast of acetaminophen [6, 7]: 41.031 µM·h; MRTinf of acetaminophen [6, 7]: 39.7 min; Vdss of acetaminophen [6, 7]: 1.06 L/kg; t1/2 of acetaminophen from the pro-drug [6, 7]: 148 min; C0 ([6]; read-out: C0 of acetaminophen, acetaminophen analyte after IV dose of acetaminophen or pro-drug, extrapolated to time 0): 175 µM; D2O solubility (mM) [1, 8]: 95 mM; D2O solubility (mg/mL) [1, 8]: 13 mg/mL |
